Patent US9302999B2, “Substituted triazoles as herbicides” (E. I. DU PONT DE NEMOURS AND COMPANY, priority 2012, dated 2016)

Tests used:
Assay type in all cases: in vivo
[1] = system: barnyardgrass (Echinochloa crus-galli); experiment: Test A pre-/postemergence: barnyardgrass; details: for Barnyardgrass plant response rating: Postemergence; for Plant response rating, Barnyardgrass: Preemergence
Excerpt: (§1) Seeds of barnyardgrass (Echinochloa crus-galli), crabgrass, large (large crabgrass, Digitaria sanguinalis), foxtail, giant (giant foxtail, Setaria faberii), morningglory (Ipomoea spp.), pigweed (Amaranthus retroflexus), velvetleaf (Abutilon theophrasti), wheat (Triticum aestivum), and corn (Zea mays) were planted into a blend of loam soil and sand and treated preemergence with a directed soil spray using test chemicals formulated in a non-phytotoxic solvent mixture which included a surfactant. At the same time these species were also treated with postemergence applications of test chemicals formulated in the same manner.
(§2) Plants ranged in height from two to ten cm and were in the one- to two-leaf stage for the postemergence treatment. Treated plants and untreated controls were maintained in a greenhouse for approximately ten days, after which time all treated plants were compared to untreated controls and visually evaluated for injury. Plant response ratings, summarized in Table A, are based on a 0 to 100 scale where 0 is no effect and 100 is complete control. A dash (-) response means no test result.

[2] = system: crabgrass, large (large crabgrass, Digitaria sanguinalis); experiment: Test A pre-/postemergence: crabgrass, large; details: for Crabgrass, Large plant response rating: Postemergence; for Plant response rating, Crabgrass, Large: Preemergence
Excerpt: as §1, §2

[3] = system: foxtail, giant (giant foxtail, Setaria faberii); experiment: Test A pre-/postemergence: foxtail, giant; details: for Foxtail, Giant plant response rating: Postemergence; for Plant response rating, Foxtail, Giant: Preemergence
Excerpt: as §1, §2

[4] = system: morningglory (Ipomoea spp.); experiment: Test A pre-/postemergence: morningglory; details: for Morningglory plant response rating: Postemergence; for Plant response rating, Morningglory: Preemergence
Excerpt: as §1, §2

[5] = system: pigweed (Amaranthus retroflexus); experiment: Test A pre-/postemergence: pigweed; details: for Pigweed plant response rating: Postemergence; for Plant response rating, Pigweed: Preemergence
Excerpt: as §1, §2

[6] = system: velvetleaf (Abutilon theophrasti); experiment: Test A pre-/postemergence: velvetleaf; details: for Velvetleaf plant response rating: Postemergence; for Plant response rating, Velvetleaf: Preemergence
Excerpt: as §1, §2

[7] = system: wheat (Triticum aestivum); experiment: Test A pre-/postemergence: wheat; details: for Wheat plant response rating: Postemergence; for Plant response rating, Wheat: Preemergence
Excerpt: as §1, §2

corn (Zea mays) = experiment: Test A pre-/postemergence: corn; details: for Corn plant response rating: Postemergence; for Plant response rating, Corn: Preemergence
Excerpt: as §1, §2

[8] = 125 g ai/ha, 0 to 100 scale, 0 is no effect, 100 is complete control
[9] = 500 g ai/ha, visual rating on 0 to 100 scale (0 no effect, 100 complete control), approximately ten days
[10] = 125 g ai/ha, 0 to 100 scale (0 no effect, 100 complete control)
[11] = 500 g ai/ha, 0 to 100 scale, 0 is no effect, 100 is complete control
[12] = 125 g ai/ha, 0 to 100 scale where 0 is no effect and 100 is complete control
[13] = 500 g ai/ha, 0 to 100 scale (0 no effect, 100 complete control)

Row | SMILES | Barnyardgrass plant response rating [1, 8] | Barnyardgrass plant response rating [1, 9] | Crabgrass, Large plant response rating [2, 8] | Crabgrass, Large plant response rating [2, 9] | Foxtail, Giant plant response rating [3, 8] | Foxtail, Giant plant response rating [3, 9] | Plant response rating, Foxtail, Giant [3, 12] | Morningglory plant response rating [4, 8] | Morningglory plant response rating [4, 9] | Plant response rating, Morningglory [4, 12] | Pigweed plant response rating [5, 8] | Pigweed plant response rating [5, 9] | Plant response rating, Pigweed [5, 12] | Velvetleaf plant response rating [6, 8] | Velvetleaf plant response rating [6, 9] | Plant response rating, Velvetleaf [6, 12] | Wheat plant response rating [7, 8] | Wheat plant response rating [7, 9] | Plant response rating, Wheat [7, 12] | Corn plant response rating (corn (Zea mays); [8]) | also measured
1 | Cc1nn(-c2ccc(F)cc2)nc1Oc1ccc(Cl)c(C(F)(F)F)c1 [Compound 99] | 10 | 30 | 30 | 70 | 20 | 80 | 10 | 60 | 80 | 0 | 70 | 100 | 20 | 10 | 60 | 0 | 0 | 20 | 0 | 20 | Plant response rating, Barnyardgrass [1, 10]: 0; Plant response rating, Barnyardgrass [1, 11]: 10; Plant response rating, Crabgrass, Large [2, 10]: 30; Plant response rating, Crabgrass, Large [2, 11]: 60; Plant response rating, Foxtail, Giant [3, 11]: 80; Plant response rating, Morningglory [4, 11]: 0; Plant response rating, Pigweed [5, 11]: 60; Plant response rating, Velvetleaf [6, 11]: 20; Plant response rating, Wheat [7, 11]: 0; Corn plant response rating (corn (Zea mays); [9]): 20; Plant response rating, Corn (corn (Zea mays); [10]): 0; Plant response rating, Corn (corn (Zea mays); [11]): 0
2 | Cc1nn(-c2ccc(F)cc2)nc1Oc1cccc(OC(F)(F)F)c1 [Compound 100] | 10 | 30 | 60 | 80 | 50 | 70 | 20 | 90 | 90 | 0 | 80 | 90 | 10 | 30 | 70 | 0 | 0 | 20 | 0 | 10 | Plant response rating, Barnyardgrass [1, 10]: 0; Plant response rating, Barnyardgrass [1, 11]: 20; Plant response rating, Crabgrass, Large [2, 10]: 10; Plant response rating, Crabgrass, Large [2, 11]: 90; Plant response rating, Foxtail, Giant [3, 11]: 70; Plant response rating, Morningglory [4, 11]: 0; Plant response rating, Pigweed [5, 11]: 90; Plant response rating, Velvetleaf [6, 11]: 0; Plant response rating, Wheat [7, 11]: 0; Corn plant response rating (corn (Zea mays); [9]): 20; Plant response rating, Corn (corn (Zea mays); [10]): 0; Plant response rating, Corn (corn (Zea mays); [11]): 0
3 | Cc1nn(-c2ccc(C(F)(F)F)cc2)nc1Oc1ccc(Cl)c(C(F)(F)F)c1 [Compound 103] | 0 | 0 | 0 | 30 | 0 | 20 | 0 | 0 | 0 | 0 | 50 | 70 | 10 | 0 | 10 | 0 | 0 | 0 | 0 | 0 | Plant response rating, Barnyardgrass [1, 10]: 0; Plant response rating, Barnyardgrass [1, 11]: 0; Plant response rating, Crabgrass, Large [2, 10]: 0; Plant response rating, Crabgrass, Large [2, 11]: 10; Plant response rating, Foxtail, Giant [3, 11]: 0; Plant response rating, Morningglory [4, 11]: 0; Plant response rating, Pigweed [5, 11]: 30; Plant response rating, Velvetleaf [6, 11]: 0; Plant response rating, Wheat [7, 11]: 0; Corn plant response rating (corn (Zea mays); [9]): 0; Plant response rating, Corn (corn (Zea mays); [10]): 0; Plant response rating, Corn (corn (Zea mays); [11]): 0
4 | OCc1nn(-c2ccc(C(F)(F)F)cc2)nc1Oc1cccc(C(F)(F)F)c1 [Compound 110] | 20 | 30 | 50 | 70 | 20 | 30 | 0 | 90 | 100 | 10 | 70 | 100 | 0 | 30 | 60 | 0 | 10 | 30 | 0 | 20 | Plant response rating, Barnyardgrass [1, 10]: 0; Plant response rating, Barnyardgrass [1, 11]: 0; Plant response rating, Crabgrass, Large [2, 10]: 0; Plant response rating, Crabgrass, Large [2, 11]: 20; Plant response rating, Foxtail, Giant [3, 11]: 20; Plant response rating, Morningglory [4, 11]: 20; Plant response rating, Pigweed [5, 11]: 50; Plant response rating, Velvetleaf [6, 11]: 10; Plant response rating, Wheat [7, 11]: 0; Corn plant response rating (corn (Zea mays); [9]): 30; Plant response rating, Corn (corn (Zea mays); [10]): 0; Plant response rating, Corn (corn (Zea mays); [11]): 0
5 | Cc1nn(-c2ccc(F)cc2)nc1Cn1cnc(C(F)(F)F)c1 [Compound 112] | 0 | 30 | 50 | 90 | 20 | 80 | 60 | 60 | 100 | 0 | 90 | 100 | 90 | 50 | 60 | 0 | 10 | 30 | 0 | 20 | Plant response rating, Barnyardgrass [1, 12]: 0; Plant response rating, Barnyardgrass [1, 13]: 40; Plant response rating, Crabgrass, Large [2, 12]: 80; Plant response rating, Crabgrass, Large [2, 13]: 100; Plant response rating, Foxtail, Giant [3, 13]: 90; Plant response rating, Morningglory [4, 13]: 20; Plant response rating, Pigweed [5, 13]: 100; Plant response rating, Velvetleaf [6, 13]: 20; Plant response rating, Wheat [7, 13]: 0; Corn plant response rating (corn (Zea mays); [9]): 20; Plant response rating, Corn (corn (Zea mays); [12]): 0; Plant response rating, Corn (corn (Zea mays); [13]): 0
